Test results as given in patent US8389539B2, “Azacyclic derivatives” (Hoffman-La Roche Inc., priority 2009, dated 2013).

Molecular target: T1, human HSL (Homo sapiens, UniProt Q05469)
T1 construct: overlapping PCR to generate a full length human HSL ORF with a 3′-His6 tag; His6 (C); made in house; host or cells: High 5 insect cells (baculovirus, pFast-BAC)
T1 sequence (Q05469 1-1076): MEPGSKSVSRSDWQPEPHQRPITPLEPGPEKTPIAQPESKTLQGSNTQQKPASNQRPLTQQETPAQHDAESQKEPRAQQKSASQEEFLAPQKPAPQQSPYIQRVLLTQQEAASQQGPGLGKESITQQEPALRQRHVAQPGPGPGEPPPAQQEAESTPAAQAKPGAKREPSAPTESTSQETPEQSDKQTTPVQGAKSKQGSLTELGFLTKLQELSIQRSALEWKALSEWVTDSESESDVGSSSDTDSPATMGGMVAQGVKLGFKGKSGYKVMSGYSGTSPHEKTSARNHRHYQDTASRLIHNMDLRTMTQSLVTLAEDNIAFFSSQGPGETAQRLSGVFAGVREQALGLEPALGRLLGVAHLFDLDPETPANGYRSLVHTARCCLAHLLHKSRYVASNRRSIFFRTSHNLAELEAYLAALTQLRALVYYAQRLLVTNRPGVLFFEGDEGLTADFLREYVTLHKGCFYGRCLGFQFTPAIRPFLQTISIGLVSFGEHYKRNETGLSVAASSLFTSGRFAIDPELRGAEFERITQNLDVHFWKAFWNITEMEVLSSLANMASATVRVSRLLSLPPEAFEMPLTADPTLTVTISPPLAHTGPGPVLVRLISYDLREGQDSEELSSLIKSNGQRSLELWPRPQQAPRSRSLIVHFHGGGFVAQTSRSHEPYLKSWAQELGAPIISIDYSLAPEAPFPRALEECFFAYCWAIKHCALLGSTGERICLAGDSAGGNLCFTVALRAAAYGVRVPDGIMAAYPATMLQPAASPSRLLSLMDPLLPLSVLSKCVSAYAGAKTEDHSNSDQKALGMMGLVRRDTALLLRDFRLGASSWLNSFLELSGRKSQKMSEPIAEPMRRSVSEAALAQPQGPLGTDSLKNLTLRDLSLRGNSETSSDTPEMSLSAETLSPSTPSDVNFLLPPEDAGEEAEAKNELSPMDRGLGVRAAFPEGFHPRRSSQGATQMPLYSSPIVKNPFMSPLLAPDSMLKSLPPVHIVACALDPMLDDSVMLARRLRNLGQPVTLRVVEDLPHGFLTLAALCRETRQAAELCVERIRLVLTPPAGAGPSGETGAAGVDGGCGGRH
Assay: Human Hormone-Sensitive Lipase (HSL) enzyme inhibition assay (colorimetric, DMPT substrate)
Format: biochemical
Settings: human full length HSL-His6, 2,3-dimercapto-1-propanol tributyrate substrate, 37° C. 20 minutes, absorbance at 405 nm; read-out: HSL hum IC50
Protocol: 1) Cloning: cDNA was prepared from commercial human brain polyA+ RNA and used as a template in overlapping PCR to generate a full length human HSL ORF with a 3′-His6 tag. This full length insert was cloned into the pFast-BAC vector and the DNA-sequence of several single clones was verified. DNA from a correct full length clone with the 3′His6 tag was used to transform the E. coli strain DH10BAC. Resulting bacmid DNA was used to generate a titered baculovirus stock for protein generation.
Cells were thawed. […] was done at 3×30 sec., Lubrol PX was added to 0.2% final concentration followed by stirring for 15 min. at 4° C. and centrifugation at 25 k×g, 60 min., 4° C. […] Supernatant was removed, the resin washed in the centrifuge vessel using 5 volumes of Base Buffer containing 0.2% Lubrol PX. Centrifugation was done again, then the supernatant discarded. The resin was poured onto a 0.8 μm membrane in a disposable filter unit (Nalge 450-0080), and washed with 5 volumes of Base Buffer containing 0.2% Lubrol PX. It was then washed with 30 volumes of Base Buffer containing 60 mM imidazole pH 7.5 at 4° C. The protein was eluated with 5 volumes of 25 mM Tris-Cl, 300 mM NaCl, 200 mM imidazole, 10 mM 2-mercaptoethanol, pH 7.5 at 4° C. by tumbling resin with buffer end-over-end, 30 min., 4° C. The resin was captured on a 0.2 μm membrane disposable filter unit (Millipore SCGP U02 RE) and the eluate collected in the reservoir. The eluate was concentrated using a 30 k MWCO centrifugal filter device (Sartorius Vivascience Vivacell 100, VC1022), to 20 ml. It was then dialyzed overnight at 4° C., two times against 2 L of 10% glycerol, 25 mM Tris-Cl, 300 mM NaCl, 0.2 mM EDTA, 0.2 mM DTT, pH 7.5 at 4° C. The protein was filtered using a 0.22 μm disposable filter unit (Millipore SCGP00525). The protein concentration was calculated from absorbance at 280 nm, using 280=0.67 cm-1 mg-1. […] The protein was stored at −80° C.
Human Hormone-Sensitive Lipase (HSL) Enzyme Inhibition Assay:
HSL enzyme activity was measured by a colorimetric assay using 2,3-dimercapto-1-propanol tributyrate (Aldrich, St. Louis, Mo.) as a substrate. Typically, 1.5 mM 2,3-dimercapto-1-propanol tributyrate (DMPT) in 100 mM MOPS, pH 7.2, 0.2 mg/ml fatty acid-free BSA was prepared by sonication at 4° C. to homogenous suspension. Test compounds (2 mM stock in DMSO) were diluted 3 fold in series in DMSO. Compound solutions were diluted 24 fold in 1.5 mM DMPT containing solution and 18 ul per well was added to 384-well microplates (Corning Costar). Twelve microliters per well of human HSL (15 ug/ml) was added and the reaction mixture was incubated at 37° C. for 20 minutes. Six microliters of 12 mM dithio-bis-(2-nitrobenzoic acid) (DTNB) in DMSO plus 1.2% SDS and 0.6% Triton X-100 were added and the mixture was incubated at room temperature for 15 minutes. Product production was monitored by reading absorbance at 405 nm on an Envision Reader (PerkinElmer Life and Analytical Sciences, Shelton, Conn.).

| Structure (SMILES) | IC50 |
| --- | --- |
| O=C1N(c2ccc(C3CC3)cc2)CCC12CCN(CCc1ccccc1)CC2 [Example 2, 2-(4-Cyclopropyl-phenyl)-8-phenethyl-2,8-diaza-spiro[4.5]decan-1-one] | 0.07 µM |
| CC(c1ccccc1)N1CCC2(CCN(c3ccc(C4CC4)cc3Cl)C2=O)CC1 (stereo not shown) [Example 6, 2-(2-Chloro-4-cyclopropyl-phenyl)-8-(1-phenyl-ethyl)-2,8-diaza-spiro[4.5]decan-1-one] | 0.98 µM |
| CCC(c1ccccc1)N1CCC2(CCN(c3ccc(C4CC4)cc3)C2=O)CC1 (stereo not shown) [Example 7, 2-(4-Cyclopropyl-phenyl)-8-(1-phenyl-propyl)-2,8-diaza-spiro[4.5]decan-1-one] | 0.03 µM |
| CCNC(=O)CN1CCC2(CC1)CCN(c1ccc(C3CC3)cc1)C2=O [Example 9, 2-[2-(4-Cyclopropyl-phenyl)-1-oxo-2,8-diaza-spiro[4.5]dec-8-yl]-N-ethyl-acetamide] | 0.61 µM |
| CCN(CC)C(=O)CN1CCC2(CC1)CCN(c1ccc(C3CC3)cc1)C2=O [Example 10, 2-[2-(4-Cyclopropyl-phenyl)-1-oxo-2,8-diaza-spiro[4.5]dec-8-yl]-N,N-diethyl-acetamide] | 0.38 µM |
| CCCCNC(=O)CN1CCC2(CC1)CCN(c1ccc(C3CC3)cc1)C2=O [Example 11, N-Butyl-2-[2-(4-cyclopropyl-phenyl)-1-oxo-2,8-diaza-spiro[4.5]dec-8-yl]-acetamide] | 0.09 µM |
| O=C(CN1CCC2(CC1)CCN(c1ccc(C3CC3)cc1)C2=O)N1CCCC1 [Example 14, 2-(4-Cyclopropyl-phenyl)-8-(2-oxo-2-pyrrolidin-1-yl-ethyl)-2,8-diaza-spiro[4.5]decan-1-one] | 0.22 µM |
| CN(C(=O)CN1CCC2(CC1)CCN(c1ccc(C3CC3)cc1)C2=O)C1CCCCC1 [Example 16, N-Cyclohexyl-2-[2-(4-cyclopropyl-phenyl)-1-oxo-2,8-diaza-spiro[4.5]dec-8-yl]-N-methyl-acetamide] | 0.06 µM |

Next, values leading:

| IC50 | Structure (SMILES) |
| --- | --- |
| 0.24 µM | O=C1N(c2ccc(C3CC3)cc2)CCC12CCN(CCCc1ccccc1)CC2 [Example 1, 2-(4-Cyclopropyl-phenyl)-8-(3-phenyl-propyl)-2,8-diaza-spiro[4.5]decan-1-one] |
| 0.36 µM | O=C1N(c2ccc(C3CC3)cc2)CCC12CCN(Cc1ccc(C(F)(F)F)cc1)CC2 [Example 3, 2-(4-Cyclopropyl-phenyl)-8-(4-trifluoromethyl-benzyl)-2,8-diaza-spiro[4.5]decan-1-one] |
| 0.03 µM | CC(c1ccccc1)N1CCC2(CCN(c3ccc(C4CC4)cc3)C2=O)CC1 (stereo not shown) [Example 4, 2-(4-Cyclopropyl-phenyl)-8-(1-phenyl-ethyl)-2,8-diaza-spiro[4.5]decan-1-one] |
| 0.17 µM | CC(c1cccc(C(F)(F)F)c1)N1CCC2(CCN(c3ccc(C4CC4)cc3)C2=O)CC1 (stereo not shown) [Example 5, 2-(4-Cyclopropyl-phenyl)-8-[1-(3-trifluoromethyl-phenyl)-ethyl]-2,8-diaza-spiro[4.5]decan-1-one] |
| 0.04 µM | O=C1N(c2ccc(OC(F)(F)F)cc2)CCC12CCN(Cc1ccccc1)CC2 [Example 8, 8-Benzyl-2-(4-trifluoromethoxy-phenyl)-2,8-diaza-spiro[4.5]decan-1-one] |
| 0.03 µM | O=C(CN1CCC2(CC1)CCN(c1ccc(C3CC3)cc1)C2=O)NCc1ccc(C(F)(F)F)cc1 [Example 12, 2-[2-(4-Cyclopropyl-phenyl)-1-oxo-2,8-diaza-spiro[4.5]dec-8-yl]-N-(4-trifluoromethyl-benzyl)-acetamide] |
| 0.08 µM | O=C(CN1CCC2(CC1)CCN(c1ccc(C3CC3)cc1)C2=O)Nc1ccc(F)cc1 [Example 13, 2-[2-(4-Cyclopropyl-phenyl)-1-oxo-2,8-diaza-spiro[4.5]dec-8-yl]-N-(4-fluoro-phenyl)-acetamide] |
| 0.08 µM | CN(Cc1ccccc1)C(=O)CN1CCC2(CC1)CCN(c1ccc(C3CC3)cc1)C2=O [Example 15, N-Benzyl-2-[2-(4-cyclopropyl-phenyl)-1-oxo-2,8-diaza-spiro[4.5]dec-8-yl]-N-methyl-acetamide] |
